In patent publication US8119750B2, “Explosion taming surfactants for the production of perfluoropolymers” (3M Innovative Properties Company, priority 2006, dated 2012):
Marks after values point to notes of the source that are not given here.

Test: Determination of bio-accumulation: urinary clearance pharmacokinetic study in rats
Details: male Sprague Dawley rats, 73 micro Moles per kg oral gavage, urine by fluorine NMR, exponential least squares curve fitting
Procedure: The perfluorinated and partially fluorinated carboxylates were evaluated for urinary clearance using a pharmacokinetic study in rats. The goal was to measure the total amount of parent compound eliminated via urinary output and estimate the rate of elimination.
The study utilized male Sprague Dawley rats, 6 to 8 weeks of age, and approximately 200 to 250 g body weight at study onset. The test compounds of table 2 were administered at a dose of 73 micro Moles per kg body weight in rats (N=3 animals per tested compound). All test compounds were prepared in sterile deionized water and given to rats via oral gavage. After test compounds administration, the rats were housed individually in metabolism cages for urine collection: 0 to 6 hours, 6 to 24 hours, 24 to 48 hours and 72 to 96 hours. Animals were observed throughout the study for clinical signs of toxicity. Gross necropsy was performed at the termination of each study (96 hours post-dose) with sera and liver samples being retained from each animal.
The concentration of the parent compound or metabolites thereof were quantitatively measured via fluorine NMR on each urine sample for each animal at each time point based on internally added standards.

Structure (SMILES)	T ½ (h) (renal half-life)
N.O=C(O)C(F)(F)C(F)OC(F)(F)C(F)(F)C(F)(F)OC(F)(F)F (stereo not drawn) [Compound 1, CF3—O—CF2—CF2—CF2—O—CHF—CF2—COONH4]	12 h
N.O=C(O)C(F)(F)C(F)(F)C(F)(F)C(F)(F)C(F)(F)C(F)(F)C(F)(F)F [Compound C-1, C7F15COONH4, reference compound]	~550 h
N.O=C(O)C(F)(F)C(F)(F)C(F)(F)C(F)(F)C(F)(F)OC(F)C(F)(F)F (stereo not drawn) [Compound 4, CF3—CFH—O—(CF2)5—COONH4]	24 h
N.O=C(O)C(F)(F)OC(F)(F)C(F)(F)C(F)(F)OC(F)(F)F [Compound C-2, CF3—O—(CF2)3—O—CF2—COONH4, reference compound]	10 h
N.O=C(O)C(F)OC(F)(F)C(F)(F)C(F)(F)OC(F)(F)F (stereo not drawn) [Compound 2, CF3—O—CF2—CF2—CF2—O—CHF—COONH4]	11 h
N.O=C(O)C(F)(F)C(F)(F)OC(F)(F)C(F)(F)C(F)(F)C(F)(F)F [Compound C-3, C4F9—O—CF2—CF2—COONH4, reference compound]	31 h
N.O=C(O)C(F)(F)C(F)(F)C(F)(F)OC(F)C(F)(F)F (stereo not drawn) [Compound 5, CF3—CFH—O—(CF2)3—COONH4]	8 h
N.O=C(O)C(F)(F)C(F)OC(F)(F)C(F)(F)C(F)(F)F (stereo not drawn) [Compound 3, C3F7—O—CFH—CF2COONH4]	11 h

Same assay, conditions: male Sprague Dawley rats, 73 micro Moles per kg oral gavage; no parent compound observed in the urine

Structure (SMILES)	T ½ (h) (renal half-life), based on elimination of the major metabolite C3F7—O—CHFCOO−
N.O=C(O)COC(F)(F)C(F)OC(F)(F)C(F)(F)C(F)(F)F (stereo not drawn) [Compound 6, C3F7—O—CFH—CF2—O—CH2—COONH4]	13* h
